# Test results reported in PubChem BioAssay AID328 (DTP/NCI, 2004).
# Values joined by “and” are separate entries in the source; they are usually repeats but may differ in a detail not shown here. Equal values may be shown once. Inconclusive results and toxic doses are left out.
# System: BDF1 mice, P388 leukemia ip, median survival T/C
# Assay: NCI In Vivo Anticancer Drug Screen. Data for tumor model P388 Leukemia (intraperitoneal) in B6D2F1 (BDF1) mice
# Details: endpoint: median survival time, higher = longer survival
# Procedure, shortened: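 Each value expresses how treatment altered survival: treated-mouse outcome over vehicle-mouse outcome, both groups bearing the transplanted tumour.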
# [1] = dose: 10.0 mg/kg/injection, schedule: Q01DX009 (ip), vehicle: saline with Tween-80
# [2] = dose: 20.0 mg/kg/injection, schedule: Q01DX009 (ip), vehicle: saline with Tween-80
# [3] = dose: 40.0 mg/kg/injection, schedule: Q01DX009 (ip), vehicle: saline with Tween-80
# [4] = dose: 100.0 mg/kg/injection, schedule: Q04DX003 (ip), vehicle: saline with Tween-80
# [5] = dose: 100.0 mg/kg/injection, schedule: Q01DX009 (ip), vehicle: saline with Tween-80
# [6] = dose: 200.0 mg/kg/injection, schedule: Q01DX009 (ip), vehicle: saline with Tween-80
# [7] = dose: 200.0 mg/kg/injection, schedule: Q04DX003 (ip), vehicle: saline with Tween-80
# [8] = dose: 400.0 mg/kg/injection, schedule: Q01DX009 (ip), vehicle: saline with Tween-80
# [9] = dose: 400.0 mg/kg/injection, schedule: Q04DX003 (ip), vehicle: saline with Tween-80
# [10] = dose: 25.0 mg/kg/injection, schedule: Q01DX009 (ip), vehicle: Klucel (hydroxypropylcellulose) (HPC)
# [11] = dose: 12.5 mg/kg/injection, schedule: Q01DX009 (ip), vehicle: water
# [12] = dose: 6.25 mg/kg/injection, schedule: Q01DX009 (ip), vehicle: saline
# [13] = dose: 12.5 mg/kg/injection, schedule: Q04DX003 (ip), vehicle: water
# [14] = dose: 25.0 mg/kg/injection, schedule: Q04DX003 (ip), vehicle: water
# [15] = dose: 50.0 mg/kg/injection, schedule: Q04DX003 (ip), vehicle: water
# [16] = dose: 100.0 mg/kg/injection, schedule: Q04DX003 (ip), vehicle: water
compound,measurement,setting,value
OCCC1(CCO)CCCCC1,T/C,[1],100 % of control
same,T/C,[2],105 % of control
same,T/C,[3],110 % of control
same,T/C,"dose: 50.0 mg/kg/injection, schedule: Q04DX003 (ip), vehicle: saline with Tween-80",109 % of control
same,T/C,[4],100 % of control
CC(C)(C)c1cc([N+](=O)[O-])cc([N+](=O)[O-])c1O,T/C,"dose: 0.78 mg/kg/injection, schedule: Q01DX009 (ip), vehicle: saline with Tween-80",105 % of control
same,T/C,"dose: 1.56 mg/kg/injection, schedule: Q01DX009 (ip), vehicle: saline with Tween-80",101 % of control
same,T/C,"dose: 3.13 mg/kg/injection, schedule: Q01DX009 (ip), vehicle: saline with Tween-80",101 % of control
same,T/C,"dose: 6.25 mg/kg/injection, schedule: Q01DX009 (ip), vehicle: saline with Tween-80",99 % of control
CCOC(=O)C(C)(C(=O)OCC)c1ccccc1,T/C,[5],104 % of control
same,T/C,[4],115 % of control
same,T/C,[6],113 % of control
same,T/C,[7],110 % of control
same,T/C,[8],118 % of control
same,T/C,[9],115 % of control
CCn1cnc2c(C(F)(F)F)nc(N)nc21,T/C,"dose: 12.5 mg/kg/injection, schedule: Q01DX009 (ip), vehicle: Klucel (hydroxypropylcellulose) (HPC)",100 % of control
same,T/C,[10],110 % of control
same,T/C,"dose: 50.0 mg/kg/injection, schedule: Q01DX009 (ip), vehicle: Klucel (hydroxypropylcellulose) (HPC)",110 % of control
COC(=O)C(Cc1cnc2nc(N)nc(N)c2n1)C(=O)OC,T/C,"dose: 1.56 mg/kg/injection, schedule: Q01DX009 (ip), vehicle: water",100 % of control
same,T/C,"dose: 3.13 mg/kg/injection, schedule: Q01DX009 (ip), vehicle: water",90 % of control
same,T/C,"dose: 6.25 mg/kg/injection, schedule: Q01DX009 (ip), vehicle: water",100 % of control
same,T/C,[11],100 % of control
same,T/C,"dose: 25.0 mg/kg/injection, schedule: Q01DX009 (ip), vehicle: water",111 % of control
COc1cccc2c1C(=N)c1c(O)c3c(c(O)c1C2=O)C[C@@](O)(C(C)=O)C[C@@H]3OC1CC(N)C(O)C(C)O1 (stereo not given in full),T/C,"dose: 3.46 mg/kg/injection, schedule: Q04DX003 (ip), vehicle: saline",177 % of control
same,T/C,"dose: 5.76 mg/kg/injection, schedule: Q04DX003 (ip), vehicle: saline",186 % of control
same,T/C,"dose: 9.6 mg/kg/injection, schedule: Q04DX003 (ip), vehicle: saline",180 % of control
COc1cc(N2CCOCC2)ccc1N,T/C,"dose: 1.56 mg/kg/injection, schedule: Q01DX009 (ip), vehicle: saline",154 % of control
same,T/C,[12],122 % of control
same,T/C,"dose: 25.0 mg/kg/injection, schedule: Q04DX003 (ip), vehicle: saline",118 % of control
same,T/C,"dose: 44.0 mg/kg/injection, schedule: Q04DX003 (ip), vehicle: saline",108 % of control
same,T/C,"dose: 66.0 mg/kg/injection, schedule: Q04DX003 (ip), vehicle: saline",116 % of control
O=C1/C(=C\c2ccco2)SC(=S)N1c1ccccc1,T/C,[1],96 % of control
same,T/C,[2],89 % of control
same,T/C,[3],98 % of control
C[C@]12C=CC(=O)C=C1CC[C@H]1[C@@H]3CCC(=O)O[C@@]3(C)CC(=O)[C@@]12F,T/C,[5],100 % of control
same,T/C,[6],100 % of control
same,T/C,[8],100 % of control
Cc1nccn1C[c-]1[c-][c-][c-][c-]1.[Fe].[c-]1[c-][c-][cH-][c-]1,T/C,[12],108 % of control
same,T/C,"dose: 12.5 mg/kg/injection, schedule: Q01DX009 (ip), vehicle: saline",99 % of control
same,T/C,"dose: 25.0 mg/kg/injection, schedule: Q01DX009 (ip), vehicle: saline",100 % of control
O=C(CCl)N1c2ccccc2Oc2cc3ccccc3cc21,T/C,[5],104 % of control
same,T/C,[4],104 % of control
same,T/C,[6],90 % of control
same,T/C,[7],100 % of control
same,T/C,[8],104 % of control
same,T/C,[9],113 % of control
COc1cccc(C(O)c2ccncc2C)c1OC (stereo not given),T/C,[13],103 % of control
same,T/C,[14],97 % of control
same,T/C,[15],102 % of control
same,T/C,[16],112 % of control
same,T/C,"dose: 200.0 mg/kg/injection, schedule: Q04DX003 (ip), vehicle: water",97 % of control
COC(=O)C(C(=O)OC)=C1CS(=O)(=O)C1,T/C,"dose: 100.0 mg/kg/injection, schedule: Q04DX002 (ip), vehicle: saline with Tween-80",94 % of control
same,T/C,"dose: 200.0 mg/kg/injection, schedule: Q04DX002 (ip), vehicle: saline with Tween-80",101 % of control
same,T/C,"dose: 400.0 mg/kg/injection, schedule: Q04DX002 (ip), vehicle: saline with Tween-80",102 % of control
C[n+]1ccc(Nc2ccc(NC(=O)c3ccc(N)cc3)cc2)cc1,T/C,[11],101 % of control
same,T/C,[13],100 % of control
same,T/C,[14],98 % of control
same,T/C,[15],100 % of control and 106 % of control
same,T/C,"dose: 100.0 mg/kg/injection, schedule: Q01DX009 (ip), vehicle: water",155 % of control
same,T/C,[16],116 % of control and 117 % of control
same,T/C,"dose: 200.0 mg/kg/injection, schedule: Q01DX009 (ip), vehicle: water",154 % of control
same,T/C,"dose: 400.0 mg/kg/injection, schedule: Q01DX009 (ip), vehicle: water",180 % of control
same,T/C,"dose: 500.0 mg/kg/injection, schedule: Q04DX003 (ip), vehicle: water",123 % of control
same,T/C,"dose: 600.0 mg/kg/injection, schedule: Q04DX003 (ip), vehicle: water",103 % of control
CC(OC1C(N)C(O)OC(CO)C1O)C(=O)O (stereo not given),T/C,"dose: 50.0 mg/kg/injection, schedule: Q01DX005 (ip), vehicle: saline",103 % of control
same,T/C,"dose: 100.0 mg/kg/injection, schedule: Q01DX005 (ip), vehicle: saline",109 % of control
same,T/C,"dose: 200.0 mg/kg/injection, schedule: Q01DX005 (ip), vehicle: saline",107 % of control
CCCCCn1c(Cl)c(/C=N\Nc2ccccc2[N+](=O)[O-])c2ccccc21,T/C,"dose: 100.0 mg/kg/injection, schedule: Q01DX001 (ip), vehicle: Klucel (hydroxypropylcellulose) (HPC)",105 % of control
same,T/C,"dose: 200.0 mg/kg/injection, schedule: Q01DX001 (ip), vehicle: Klucel (hydroxypropylcellulose) (HPC)",96 % of control
same,T/C,"dose: 400.0 mg/kg/injection, schedule: Q01DX001 (ip), vehicle: Klucel (hydroxypropylcellulose) (HPC)",118 % of control
O=NN(CCBr)C(=O)Nc1ccccc1,T/C,"dose: 4.0 mg/kg/injection, schedule: Q04DX003 (ip), vehicle: Klucel (hydroxypropylcellulose) (HPC)",107 % of control
same,T/C,"dose: 6.5 mg/kg/injection, schedule: Q04DX003 (ip), vehicle: Klucel (hydroxypropylcellulose) (HPC)",119 % of control
same,T/C,"dose: 11.0 mg/kg/injection, schedule: Q01DX009 (ip), vehicle: Klucel (hydroxypropylcellulose) (HPC)",150 % of control and 158 % of control
same,T/C,"dose: 15.0 mg/kg/injection, schedule: Q04DX003 (ip), vehicle: Klucel (hydroxypropylcellulose) (HPC)",162 % of control
same,T/C,"dose: 16.5 mg/kg/injection, schedule: Q01DX009 (ip), vehicle: Klucel (hydroxypropylcellulose) (HPC)",166 % of control
same,T/C,"dose: 16.5 mg/kg/injection, schedule: Q01DX009 (ip), vehicle: saline with Tween-80",185 % of control
same,T/C,[10],195 % of control and 215 % of control
same,T/C,"dose: 25.0 mg/kg/injection, schedule: Q01DX009 (ip), vehicle: saline with Tween-80",200 % of control
same,T/C,"dose: 29.0 mg/kg/injection, schedule: Q04DX003 (ip), vehicle: Klucel (hydroxypropylcellulose) (HPC)",154 % of control and 168 % of control
same,T/C,"dose: 37.5 mg/kg/injection, schedule: Q01DX009 (ip), vehicle: Klucel (hydroxypropylcellulose) (HPC)",220 % of control
same,T/C,"dose: 37.5 mg/kg/injection, schedule: Q01DX009 (ip), vehicle: saline with Tween-80",210 % of control
same,T/C,"dose: 44.0 mg/kg/injection, schedule: Q04DX003 (ip), vehicle: Klucel (hydroxypropylcellulose) (HPC)",175 % of control and 181 % of control
same,T/C,"dose: 67.0 mg/kg/injection, schedule: Q04DX003 (ip), vehicle: Klucel (hydroxypropylcellulose) (HPC)",167 % of control and 185 % of control and 204 % of control
same,T/C,"dose: 100.0 mg/kg/injection, schedule: Q04DX003 (ip), vehicle: Klucel (hydroxypropylcellulose) (HPC)",121 % of control and 211 % of control
same,T/C,"dose: 150.0 mg/kg/injection, schedule: Q04DX003 (ip), vehicle: Klucel (hydroxypropylcellulose) (HPC)",175 % of control
